Reference: BindingDB's records for doi:10.1021/acs.jmedchem.9b00881 (University of Auckland, 2020)

Tests used:
[1] = Inhibition of perforin (unknown origin) assessed as reduction in perforin-mediated cell lysis in human Jurkat T cells incubated for 30 mins by 51Cr release based gamma counting method
[2] = Inhibition of perforin in human KHYG-1 cells pre-treated with compound for 20 mins assessed as reduction in KHYG-1 cells-mediated cell lysis of human K562 cells measured after 4 hrs by 51Cr release based gamma counting method

SMILES	IC50 [1]	IC50 [2]
O=C1c2ccc(-c3ccc(-c4cncc(NS(=O)(=O)c5ccc(F)cc5F)c4)s3)cc2CN1CC(O)CO (configuration not stated)	14.2 µM	
CN1Cc2cc(-c3ccc(-c4cncc(NS(=O)(=O)c5ccccc5C(F)(F)F)c4)s3)cnc2C1=O	1.38 µM	3.3 µM
O=C1NCc2cc(-c3ccc(-c4cncc(NS(=O)(=O)c5ccc(F)cc5F)c4)s3)cnc21	5.73 µM	
CN(C)CCN1Cc2cc(-c3ccc(-c4cncc(NS(=O)(=O)c5ccc(F)cc5F)c4)s3)ccc2C1=O	> 20 µM	
COc1ncc(-c2ccc(-c3cnc4c(c3)CN(C)C4=O)s2)cc1NS(=O)(=O)c1ccccc1C(F)(F)F	0.78 µM	2.21 µM
O=C1c2ccc(-c3ccc(-c4cncc(NS(=O)(=O)c5ccc(F)cc5F)c4)s3)cc2CN1CCN1CCCC1	> 20 µM	
COc1ncc(-c2ccc(-c3cnc4c(c3)CN(C)C4=O)s2)cc1NS(=O)(=O)c1ccc(F)cc1F	3.34 µM	4.43 µM
CN1Cc2cc(-c3ccc(-c4cncc(NS(=O)(=O)c5cccc(C(F)(F)F)c5)c4)s3)cnc2C1=O	> 20 µM	3.4 µM

The next lines start with the values.

IC50 [1]	IC50 [2]	SMILES
> 20 µM		O=C1c2ccc(-c3ccc(-c4cncc(NS(=O)(=O)c5ccc(F)cc5F)c4)s3)cc2CN1CCN1CCCCC1
4.3 µM	7.5 µM	CN1Cc2cc(-c3ccc(-c4cncc(NS(=O)(=O)c5ccc(F)cc5F)c4)s3)cnc2C1=O
2.3 µM	1.6 µM	COc1ncc(-c2ccc(-c3cnc4c(c3)CN(C)C4=O)s2)cc1NS(=O)(=O)c1ccccc1[N+](=O)[O-]
17 µM		O=C1c2ccc(-c3ccc(-c4cncc(NS(=O)(=O)c5ccc(F)cc5F)c4)s3)cc2CN1CCN1CCOCC1
> 20 µM		CN1CCN(CCN2Cc3cc(-c4ccc(-c5cncc(NS(=O)(=O)c6ccc(F)cc6F)c5)s4)ccc3C2=O)CC1
> 20 µM		O=C1c2ccc(-c3ccc(-c4cncc(NS(=O)(=O)c5ccc(F)cc5F)c4)s3)cc2CN1CCCO
> 20 µM	6.8 µM	O=C1NCc2ncc(-c3ccc(-c4cncc(NS(=O)(=O)c5ccc(F)cc5F)c4)s3)cc21
